What all share (type): biochemical
Experiment [1] deals with PDE1 protein isolated from bovine brain. The experiment can be described thus: PDE 1 inhibition assay ([3H]cAMP hydrolysis). The settings on record: final concentration of the test compound 10 μM. The procedure: PDE1 protein isolated from bovine brain (MDS Pharma Services: cat. No. 146000) was pre-incubated with the respective test compound dissolved in 1% DMSO aqueous solution for 15 minutes at 25° C. in an incubation buffer (50 mM Tris-HCl, pH 7.5, 5 mM MgCl2, 2 mM CaCl2, 100 U/ml Calmodulin). After pre-incubation phase 1.01 μM [^3H]cAMP+cAMP where added as substrate to the buffer and the mixture was incubated for additional 20 minutes (25° C.).
(§1) At the end of incubation phase [^3H] Adenosine concentrations were quantified. The final concentration of the test compound is 10 μM.

Experiment [2] deals with T1, PDE3 protein isolated from human platelets (Homo sapiens, UniProt Q14432).
T1 construct: PDE3 protein isolated from human platelets; tissue MDS Pharma Services 152000; host or cells: human platelets
Kind of experiment: PDE 3 inhibition assay ([3H]cAMP hydrolysis). The note with it: final concentration of the test compound 10 μM; read-out: inhibition compared with the control (PDE 3). Here is the method: PDE3 protein isolated from human platelets (MDS Pharma Services: cat. No. 152000) was pre-incubated with the respective test compound dissolved in 1% DMSO aqueous solution for 15 minutes at 25° C. in an incubation buffer (50 mM Tris-HCl, pH 7.5, […], […]). After pre-incubation phase 1.01 μM [^3H]cAMP+cAMP where added as substrate to the buffer and the mixture was incubated for additional 20 minutes (25° C.). At the end of incubation phase [^3H] Adenosine concentrations were quantified. Stimulating or inhibiting effects equal or larger than 50% in comparison to vehicle (1% DMSO) control were considered as significant effects.
as §1

Experiment [3] deals with PDE4 protein from human leukemic monocyte lymphoma cell line (U937). Kind of experiment: PDE 4 inhibition assay ([3H]cAMP hydrolysis). The note with it: final concentration of the test compound 10 μM. The procedure: PDE4 protein from human leukemic monocyte lymphoma cell line (U937, for example abcam ab3959) (MDS Pharma Services: cat. No. 152000) was pre-incubated with the respective test compound dissolved in 1% DMSO aqueous solution for 15 minutes at 25° C. in an incubation buffer (50 mM Tris-HCl, pH 7.5, 5 mM MgCl2, 2 mM CaCl2, 100 U/ml Calmodulin). After pre-incubation phase 1.01 μM [^3H]cAMP+cAMP where added as substrate to the buffer and the mixture was incubated for additional 20 minutes (25° C.). At the end of incubation phase [^3H] Adenosine concentrations were quantified.
as §1

T1 sequence (Q14432 whole entry): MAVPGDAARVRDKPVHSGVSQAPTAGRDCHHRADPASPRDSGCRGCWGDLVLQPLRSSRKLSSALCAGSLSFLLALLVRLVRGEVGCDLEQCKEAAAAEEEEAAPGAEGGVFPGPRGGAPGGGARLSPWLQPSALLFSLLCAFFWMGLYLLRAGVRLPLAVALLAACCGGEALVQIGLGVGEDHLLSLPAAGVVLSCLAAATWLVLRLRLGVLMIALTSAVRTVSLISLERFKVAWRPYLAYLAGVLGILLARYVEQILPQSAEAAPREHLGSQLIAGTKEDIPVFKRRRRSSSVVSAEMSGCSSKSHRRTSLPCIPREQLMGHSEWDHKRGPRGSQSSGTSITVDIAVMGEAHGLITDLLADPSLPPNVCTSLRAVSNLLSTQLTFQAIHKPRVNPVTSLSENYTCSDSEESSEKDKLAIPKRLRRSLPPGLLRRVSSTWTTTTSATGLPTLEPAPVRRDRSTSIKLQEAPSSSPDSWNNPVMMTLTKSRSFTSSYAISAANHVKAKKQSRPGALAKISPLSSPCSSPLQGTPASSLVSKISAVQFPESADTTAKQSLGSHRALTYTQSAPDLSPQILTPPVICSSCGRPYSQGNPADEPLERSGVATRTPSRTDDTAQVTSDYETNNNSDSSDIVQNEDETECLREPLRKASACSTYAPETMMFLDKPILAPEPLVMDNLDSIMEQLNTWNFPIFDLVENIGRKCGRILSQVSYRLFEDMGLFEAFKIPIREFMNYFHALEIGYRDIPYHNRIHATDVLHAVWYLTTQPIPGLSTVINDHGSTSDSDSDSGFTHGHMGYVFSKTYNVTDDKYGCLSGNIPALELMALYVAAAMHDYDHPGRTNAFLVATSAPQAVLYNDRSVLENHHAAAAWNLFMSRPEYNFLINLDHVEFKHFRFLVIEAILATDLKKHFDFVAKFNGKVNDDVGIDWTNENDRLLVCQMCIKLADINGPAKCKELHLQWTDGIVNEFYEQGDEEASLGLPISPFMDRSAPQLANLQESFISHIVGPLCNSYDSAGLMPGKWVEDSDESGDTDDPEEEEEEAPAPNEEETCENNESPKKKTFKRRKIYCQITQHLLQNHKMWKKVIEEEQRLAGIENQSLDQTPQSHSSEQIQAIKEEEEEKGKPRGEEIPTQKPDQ

The term inhibition denotes the change of the read-out against control, counted positive when it falls. With `O=C1/C(=C/c2ccc(O)cc2)Oc2cc(O)cc(O)c21` [SM 30(3), 4,4′,6-Trihydroxy-aurone], in experiment [1], the “inhibition compared with the control (PDE 1)” value is on record as 52%. Also, the inhibition at 10 µM in experiment [2] worked out at 74%. Also, the “inhibition compared with the control (PDE 4)” value in experiment [3] came out at 41%.
As to `O=C1/C(=C/c2ccc(O)cc2O)Oc2cc(O)cc(O)c21` [SM 29 (3), 2′,4,4′,6-Tetrahydroxy-aurone], the “inhibition compared with the control (PDE 1)” value in experiment [1] is 52%. Moreover, in experiment [2], the inhibition at 10 µM is 39%. The “inhibition compared with the control (PDE 4)” value in experiment [3] came out at 29%.

(Values after patent US20100267823A1, “AURONES AS SELECTIVE PDE INHIBITORS AND THEIR USE IN NEUROLOGICAL CONDITIONS AND DISORDERS” (priority 2009, published 2010).)
